Laboratory results reported in patent US8916516B2, “Treatment of fungal and/or protist infections” (AI2 Limited, priority 2005, dated 2014).

Experiments:
[1] = tested on: Candida albicans 6862 (clinical isolate); assay: microbe, parasite or virus in culture; type: cell-based; settings: 6862 (clinical isolate, 24 h)
Description: (§1) Four compounds were supplied as an aqueous solution, 400 μM. Serial dilutions of each test peptide were prepared in addition to a control, which was a conventional antifungal drug, Amphoteracin B. Amphteracin B is obtained from Invitrogen or Melford laboratories.
(§2) Initial testing of the peptides was carried out against the following organisms: • 1) Aspergillus fumigatus AF293 (culture collection strain NCPF7367) • 2) Candida albicans 6862 (clinical isolate) • 3) Fusarium spp 5889 (clinical isolate) • 4) Fusarium spp 6507 (clinical isolate) • 5) Aspergillus terreus (clinical isolate) • 6) Aspergillus niger (clinical isolate) • 7) Staphylococcus aureus (Oxford strain, which is a standard reference strain used in MIC testing)
(§3) The bacterium S. aureus was tested with each of the peptides as a control. A suspension of each organism in an appropriate growth medium was added to the, dilutions of the peptides in order to give concentration ranges of 40 μM to 0.04 μM for each of the peptides, and 64-0.025 μg/ml for amphotericin B. Fungal strains were tested in RPMI media. RPMI is standard Roswell Park Memorial Institute medium (Morton, H. C., (1970) A survey of Commercially Available Tissue Culture Media. In Vitro 6: 89-108).
(§4) The final inoculum for S. aureus was 5×10^4 cfu/ml. The final inoculum for C. albicans was 2×10^3 cfu/ml. The final inoculum for Aspergillus fumigatus and for Fusarium spp was 2×10^4 cfu/ml.
(§5) Candida and S. aureus plates were read after 24 hrs incubation and the Aspergillus and Fusarium strains read after 48 hrs. The MIC was taken as the lowest drug or compound concentration that caused >80% reduction in growth compared with a drug free control.

[2] = tested on: Aspergillus fumigatus AF293 (NCPF7367); assay: microbe, parasite or virus in culture; type: cell-based; settings: for MIC: AF293 (NCPF7367, 48 h); for MIC values (>80% reduction) AF: Aspergillus fumigatus 293, peptides, Tables 4 and 5
Description: as §1, §2, §3, §4, §5
Aspergillus fumigatus 293 (AF); and
FS1-FS4 were obtained from Bristol PHLS (British Public Health Laboratory Service UK). Aspergillus fumigatus 293 is publicly available as culture collection strain NCPF7367 (National Collection of Pathogenic Fungi Public Health Laboratory, Mycological Reference Laboratory Myrtle Road, Kingsdown, Bristol BS2 8EL) The Candida albicans was a clinical isolate obtained by standard means. […]

[3] = tested on: Fusarium spp 5889 (clinical isolate); assay: Antifungal MIC broth dilution (Example 1); type: cell-based; settings: RPMI, 48 hrs, >80% reduction
Description: as §1, §2, §3, §4, §5

[4] = tested on: Fusarium spp 6507 (clinical isolate); assay: Antifungal MIC broth dilution (Example 1); type: cell-based; settings: RPMI, 48 hrs, >80% reduction
Description: as §1, §2, §3, §4, §5

[5] = tested on: Aspergillus niger (clinical isolate); assay: microbe, parasite or virus in culture; type: cell-based; settings: clinical isolate
Description: as §1, §2, §3, §5

[6] = tested on: Aspergillus terreus (clinical isolate); assay: microbe, parasite or virus in culture; type: cell-based
Description: as §1, §2, §3, §5

[7] = tested on: Staphylococcus aureus (Oxford strain); assay: microbe, parasite or virus in culture; type: cell-based; settings: Oxford strain, 24 h
Description: as §1, §2, §3
S. aureus was tested in Isosensitest broth. Isosentitest agar is a standard MIC medium used by many hospital labs for bacterial MICs using a disc diffusion method. The reference standard is Oxoid CM471. Also available in broth form, CM473, for the bacterial broth dilution assay method. NCCLS ref M7-A4. Both the NCCLS methods quoted are the standard methods.
as §4, §5

[8] = tested on: Acanthamoeba polyphaga (trophozoites), Ros strain; assay: Microtitre plate assay against Acanthamoeba trophozoites (Example 2); type: cell-based; settings: for MATC = minimum amoebacidal trophozoite concentration: lowest concentration killing the trophozoite challenge
Excerpt: The test compounds were screened against the trophozoites of clinical isolates of Acanthamoeba spp. using a microtitre plate assay procedure. The organisms were Acanthamoeba polyphaga. (see for details on the strain and methodology used: Hughes, R. & Kilvington, S. (2001). A comparison of hydrogen peroxide contact lens disinfection systems and solutions against Acanthamoeba polyphaga. Antimicrob. Agents Chemother. 45: 2038-2043.) Acanthamoeba polyphaga Ros strain was used throughout the study. The strain was originally isolated from an unpublished case of acanthamoeba keratitis in the United Kingdom in 1994.
Use of the microliter plate assay enabled the determination of the minimum amoebacidal trophozoite concentration (MATC), which is the minimum amoebacidal trophozoite concentration (μg/ml)=lowest concentration killing the trophozoite challenge […] and also the minimum inhibitory trophozoite concentration (MITC), which is the minimum inhibitory trophozoite concentration (μg/ml)=lowest concentration stopping the trophozoites from dividing or killing about 50% of population. The values may then be used to select drug concentrations for use in time-kill experiments to study the kinetics of Acanthamoeba killing.

[9] = tested on: Fusarium solani 1 (FS1); assay: Antifungal MIC (Example 4); type: cell-based; settings: Fusarium solani 1; peptides; Tables 4 and 5
Description: (§6) The inventor expanded the work conducted in Example 1 by testing an expanded library of peptides derived from either apolipoprotein B or apolipoprotein E in order to further evaluate polypeptides in accordance with the invention. These experiments were conducted using the following fungal species:
(§7) FS1-FS4 were obtained from Bristol PHLS (British Public Health Laboratory Service UK). Aspergillus fumigatus 293 is publicly available as culture collection strain NCPF7367 (National Collection of Pathogenic Fungi Public Health Laboratory, Mycological Reference Laboratory Myrtle Road, Kingsdown, Bristol BS2 8EL) The Candida albicans was a clinical isolate obtained by standard means.
(§8) The methods used to determine, the IC50 values for each peptide were as described in the Example 1.

[10] = tested on: Fusarium solani 2 (FS2); assay: Antifungal MIC (Example 4); type: cell-based; settings: Fusarium solani 2; peptides; Tables 4 and 5
Description: as §6, §7, §8

[11] = tested on: Fusarium solani 3 (FS3); assay: Antifungal MIC (Example 4); type: cell-based; settings: Fusarium solani 3; peptides; Tables 4 and 5
Description: as §6, §7, §8

[12] = tested on: Fusarium solani 4 (FS4); assay: Antifungal MIC (Example 4); type: cell-based; settings: Fusarium solani 4; peptides; Tables 4 and 5
Description: as §6, §7, §8

[13] = tested on: Candida albicans (CA), clinical isolate; assay: Antifungal MIC (Example 4); type: cell-based; settings: peptides, Tables 4 and 5
Description: as §6, §7, §8

[14] = tested on: P. berghei sporozoites; assay: Sporozoite development assay in Hepa 1-6 cells (Example 5); type: cell-based, Plasmodium berghei; settings: for inhibition of entry of P. berghei into Hep 1-6 cells: sporozoites pre-incubated with polypeptide at 50 μg/ml, plated on cells with peptide present, FIG. 5(A)
Description: 3-5 day-old Anopheles stephensi mosquitoes were fed on anesthetized P. berghei (NK65)-infected Swiss Webster mice which had been checked by blood smear for the abundance of gametocyte-stage parasites. Salivary gland sporozoites were harvested on days 18 to 21 post-infective blood meal. The mosquitoes were rinsed in 70% ethanol and washed in Dulbecco's Modified Eagle Medium (DMEM) before salivary gland dissection. The glands were gently ground, spun at 80×g for 3 min to remove mosquito debris and sporozoites counted in a hemocytometer.
Hepa 1-6 cells (ATCC CRL-1830, American Type Culture Collection, Manassas, Va.), a mouse hepatoma cell line permissive for P. berghei sporozoite development were seeded (8×10^4 cells/well) in Lab-Tek permanox chamber slides (Nalgene Nunc Corp., Naperville, Ill.) and grown until confluent. On the day of the experiment, sporozoites were dissected from mosquitoes and pre-incubated with Dulbecco's Modified Eagle Medium (DMEM; Invitrogen, Carlsbad, Calif.) with 1% BSA alone or with the indicated polypeptide at 50 μg/ml for 1 hr at 28° C. and plated on cells in the continued presence of the inhibitor in DMEM containing 10% fetal calf serum (complete medium). After 1 hr at 37° C., the medium containing unattached sporozoites and polypeptide was removed and replaced with complete medium. […] The number of EEFs in each well were counted with a 40× objective on a Nikon fluorescent microscope. In other experiments, Hepa1-6 cells were pretreated with the polypeptides at 50 μg/ml in complete medium for 1 hour, washed and then sporozoites were added in complete medium without polypeptide and the assay was continued as outlined above.

[15] = tested on: fungi; type: cell-based; settings: fungus not specified; read-out: IC50 value for inhibiting fungal growth
Description: as §1, §2
The bacterium S. aureus was tested with each of the peptides as a control. […] RPMI is standard Roswell Park Memorial Institute medium (Morton, H. C., (1970) A survey of Commercially Available Tissue Culture Media. In Vitro 6: 89-108).
as §5, §8

[16] = tested on: bacteria; settings: reported by Azuma et al., Peptides 21: 327-330 (2000); cited from earlier work

Row | Substance | MIC [1] [µM] | MIC [2] [µM] | MIC values (>80% reduction) AF [2] [µM] | MIC [3] [µM] | MIC [4] [µM] | MIC [5] [µM] | MIC [6] [µM] | MIC [7] [µM] | MATC = minimum amoebacidal trophozoite concentration [8] [µM] | MIC values (>80% reduction) FS1 [9] [µM] | MIC values (>80% reduction) FS2 [10] [µM] | MIC values (>80% reduction) FS3 [11] [µM] | MIC values (>80% reduction) FS4 [12] [µM] | MIC values (>80% reduction) CA [13] [µM] | inhibition of entry of P. berghei into Hep 1-6 cells [14] | MITC = minimum inhibitory trophozoite concentration ([8]; lowest concentration stopping trophozoites dividing or killing about 50% of population) [µM] | block of P. berghei entry after pretreatment of cells ([14]; cells treated with peptide at 50 μg/ml for 1 hour, washed, then sporozoites added, FIG. 5(B)) | IC50 [15] [nM] | antibacterial activity (in words) [16]
1 | Ac-LRKLRKRLLLRKLRKRLL-NH2 [MU_10] | >40 | >40 | >40 | 10 | >40 | >40 | >40 | >40 | 207.1 | 2.5 | 5 | 2.5 | 5 | >40 | inhibit entry of P. berghei into Hep 1-6 cells |  |  |  | 
2 | Ac-WRKWRKRWWWRKWRKRWW-NH2 [MU_4] | 10 | 2.5 | 1.25 | 2.5 | 10 | 1.25 | >40 | 5 | 41.7 | 0.3 | 0.3 | 0.3 | 0.3 | 2.5 | inhibit entry of P. berghei into Hep 1-6 cells | 20.8 | retained its ability to block P. berghei entry | ≤ 2500 | 
3 | apoE134-151: Azuma's apolipoprotein E peptide, 18 amino acids in length (RVRLASHLRKLRKRLLRD; UniProt P02649 152-169, looked up, fragment) |  |  |  |  |  |  |  |  |  |  |  |  |  |  |  |  |  |  | no activity at all
4 | apoE134-155: Azuma's apolipoprotein E peptide, 22 amino acids in length (RVRLASHLRKLRKRLLRDADDL; UniProt P02649 152-173, looked up, fragment) |  |  |  |  |  |  |  |  |  |  |  |  |  |  |  |  |  |  | very low antibacterial activity
5 | apoE134-159: Azuma's apolipoprotein E peptide, 26 amino acids in length (RVRLASHLRKLRKRLLRDADDLQKRL; UniProt P02649 152-177, looked up, fragment) |  |  |  |  |  |  |  |  |  |  |  |  |  |  |  |  |  |  | greatly reduced antibacterial activity
